In experiment [1] the target is T1, bovine vesicular acetylcholine transporter (VAChT) (Bos taurus, UniProt E1BK36).
T1 sequence (E1BK36 1-524): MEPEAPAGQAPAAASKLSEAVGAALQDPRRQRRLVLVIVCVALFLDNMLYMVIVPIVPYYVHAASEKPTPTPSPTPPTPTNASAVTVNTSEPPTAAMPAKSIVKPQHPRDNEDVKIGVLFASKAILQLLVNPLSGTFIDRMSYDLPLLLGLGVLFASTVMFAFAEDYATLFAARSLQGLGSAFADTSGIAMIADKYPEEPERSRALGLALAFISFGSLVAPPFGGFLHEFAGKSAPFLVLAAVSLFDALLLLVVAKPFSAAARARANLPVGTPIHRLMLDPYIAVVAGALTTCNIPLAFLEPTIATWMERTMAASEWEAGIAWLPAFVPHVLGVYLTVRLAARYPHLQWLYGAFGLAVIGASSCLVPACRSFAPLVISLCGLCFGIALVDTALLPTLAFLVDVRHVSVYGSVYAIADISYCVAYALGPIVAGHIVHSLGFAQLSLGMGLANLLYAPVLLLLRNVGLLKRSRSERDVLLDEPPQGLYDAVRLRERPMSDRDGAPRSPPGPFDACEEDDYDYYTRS
As to the kind of experiment: Radioligand Binding Assay. Particulars: Bovine binding Ki, CHO-K1 membranes with recombinant bovine VAChT, [3H]Compound X6 0.3 nM.

For experiment [2], the system named is Dirofilaria immitis microfilariae. As to the kind of experiment: Dirofilaria immitis, Microfilariae (DiMF) In Vitro Assay. As to conditions: Dirofilaria immitis.
In the next experiment the test system is Haemonchus contortus L3. The experiment is described as follows: Haemonchus contortus, Larvae Stage 3 (HcL3) In Vitro Assay. As to conditions: Haemonchus contortus.
The mark [3] stands for this setting: 72 h, read-out: Di MF, MEC, decrease in microfilariae motility by visual assessment, curve starting at 100 μM.
Where [4] appears, read: 96 h, read-out: HcL3 MEC, Minimal Effective Concentration whereby worm motility is inhibited by approximately 70%, 37° C., tested 0.001-100 μM.
The mark [5] stands for this setting: 96 hours, 37° C., read-out: HcL3 MEC.

This note sets out measurements from patent US20160296499A1, “Spiroindoline Antiparasitic Derivatives” (ZOETIS SERVICES LLC, priority 2013, published 2016).

Read-outs that look alike come from different tables or passages of the source.

Take `O=C(NCc1ccnc(F)c1)N1CC2(CCN(C/C=C/c3ccc(Cl)cc3)CC2)c2cc(-c3cc[nH]c(=O)c3)ccc21` [Example 83, (E)-1′-(3-(4-chlorophenyl)allyl)-N-((2-fluoropyridin-4-yl)methyl)-5-(2-oxo-1,2-dihydropyridin-4-yl)spiro[indoline-3,4′-piperidine]-1-carboxamide]: the Ki in experiment [1] amounted to 11.2 µM. Further, the minimal effective concentration in experiment [2] (setting [3]) was found to be 6.9 µM; in the experiment on Haemonchus contortus L3 (setting [4]), 100 µM.
As for `O=C(NCc1ccnc(F)c1)N1CC2(CCN(C/C=C/c3ccc(Cl)cc3)CC2)c2cc(C3CC3)ccc21` [Example 84, (E)-1′-(3-(4-chlorophenyl)allyl)-5-cyclopropyl-N-((2-fluoropyridin-4-yl)methyl)spiro[indoline-3,4′-piperidine]-1-carboxamide], the Ki in experiment [1] came out at 0.68 µM. The minimal effective concentration is 3.3 µM in experiment [2] (72 hours, read-out: Di MF) and 100 µM in the experiment on Haemonchus contortus L3 (setting [5]).
For `O=C(NCc1cnc(Cl)s1)N1CC2(CCN(C/C=C/c3ccc(Cl)cc3)CC2)c2cc(C(F)(F)F)ccc21` [Example 85, (E)-1′-(3-(4-chlorophenyl)allyl)-N-((2-chlorothiazol-5-yl)methyl)-5-(trifluoromethyl)spiro[indoline-3,4′-piperidine]-1-carboxamide] the same measures were 0.226 µM, 10 µM and 18.2 µM.
With `N#Cc1cc2c(cn1)N(C(=O)NCc1ccnc(Cl)c1)CC21CCN(C/C=C/c2ccc(Cl)cc2)CC1` [Example 86, (E)-1-(3-(4-chlorophenyl)allyl)-N-((2-chloropyridin-4-yl)methyl)-5′-cyanospiro[piperidine-4,3′-pyrrolo[2,3-c]pyridine]-1′(2′H)-carboxamide], the Ki in experiment [1] turned out to be 0.0317 µM. The minimal effective concentration in experiment [2] (setting [3]) amounted to 5.7 µM; in the experiment on Haemonchus contortus L3 (setting [4]), 3.3 µM.
In the case of `N#Cc1ccc2c(n1)C1(CCN(C/C=C/c3ccc(Cl)cc3)CC1)CN2C(=O)NCc1ccnc(Cl)c1` [Example 87, (E)-1-(3-(4-chlorophenyl)allyl)-N-((2-chloropyridin-4-yl)methyl)-5′-cyanospiro[piperidine-4,3′-pyrrolo[3,2-b]pyridine]-1′(2′H)-carboxamide], the Ki in experiment [1] was determined as 0.0381 µM. In addition, the minimal effective concentration was 5.7 µM in experiment [2] (setting [3]) and 18.2 µM in the experiment with Haemonchus contortus L3 (setting [4]).
On to `O=C(NCc1ccnc(Cl)c1)N1CC2(CCN(C/C=C/c3ccc(Cl)cc3)CC2)c2c(OC(F)(F)F)cccc21` [Example 88, (E)-1′-(3-(4-chlorophenyl)allyl)-N-((2-chloropyridin-4-yl)methyl)-4-(trifluoromethoxy)spiro[indoline-3,4′-piperidine]-1-carboxamide], for which the Ki in experiment [1] is 1.13 µM. The minimal effective concentration in experiment [2] (setting [3]) came out at 3.3 µM; in the experiment on Haemonchus contortus L3 (setting [4]), 100 µM.
For `O=C(NCc1ccnc(Cl)c1)N1CC2(CCN(C/C=C/c3ccc(Cl)cc3)CC2)c2c(SC(F)(F)F)cccc21` [Example 89, (E)-1′-(3-(4-chlorophenyl)allyl)-N-((2-chloropyridin-4-yl)methyl)-4-(trifluoromethylthio)spiro[indoline-3,4′-piperidine]-1-carboxamide], in that order: 0.774 µM, 6.9 µM and 100 µM.
As to `O=C(NCc1ccnc(F)c1)N1CC2(CCN(C/C=C/c3ccc(Cl)cc3)CC2)c2c(F)cc(C(F)(F)F)cc21` [Example 90, (E)-1′-(3-(4-chlorophenyl)allyl)-4-fluoro-N-((2-fluoropyridin-4-yl)methyl)-6-(trifluoromethyl)spiro[indoline-3,4′-piperidine]-1-carboxamide], the Ki in experiment [1] came to 0.256 µM. Also, the minimal effective concentration in experiment [2] (setting [3]) is 10 µM; in the experiment on Haemonchus contortus L3 (setting [4]), 1.8 µM.
As to `O=C(NCc1ccnc(F)c1)N1CC2(CCN(C/C=C/c3ccc(Cl)cc3)CC2)c2c(-c3ccccc3)cccc21` [Example 91, (E)-1′-(3-(4-chlorophenyl)allyl)-N-((2-fluoropyridin-4-yl)methyl)-4-phenylspiro[indoline-3,4′-piperidine]-1-carboxamide], the inhibition constant Ki in experiment [1] was found to be 0.295 µM. Besides, the minimal effective concentration amounted to 3.3 µM in experiment [2] (setting [3]) and 100 µM in the experiment with Haemonchus contortus L3 (setting [4]).
For `O=C(NCc1ccnc(F)c1)N1CC2(CCN(C/C=C/c3ccc(Cl)cc3)CC2)c2c1cccc2C(F)(F)F` [Example 92, (E)-1′-(3-(4-chlorophenyl)allyl)-N-((2-fluoropyridin-4-yl)methyl)-4-(trifluoromethyl)spiro[indoline-3,4′-piperidine]-1-carboxamide], in that order: 0.796 µM, 5 µM and 5 µM.
For `O=C(NCc1ccnc(F)c1)N1CC2(CCN(C/C=C/c3ccc(Cl)cc3)CC2)c2c(C3CC3)cccc21` [Example 93, (E)-1′-(3-(4-chlorophenyl)allyl)-4-cyclopropyl-N-((2-fluoropyridin-4-yl)methyl)spiro[indoline-3,4′-piperidine]-1-carboxamide], in that order: 0.958 µM, 5.7 µM and 100 µM.
In the case of `O=C(NCc1ccnc(F)c1)N1CC2(CCN(C/C=C/c3ccc(Cl)cc3)CC2)c2c(OC(F)(F)F)cccc21` [Example 94, (E)-1′-(3-(4-chlorophenyl)allyl)-N-((2-fluoropyridin-4-yl)methyl)-4-(trifluoromethoxy)spiro[indoline-3,4′-piperidine]-1-carboxamide], the Ki in experiment [1] came to 3.93 µM. Further, the minimal effective concentration in experiment [2] (setting [3]) turned out to be 3.3 µM; with Haemonchus contortus L3 (setting [4]), 100 µM.
For `O=C(NCc1cnc(Cl)s1)N1CC2(CCN(C/C=C/c3ccc(Cl)cc3)CC2)c2c(OC(F)(F)F)cccc21` [Example 95, (E)-1′-(3-(4-chlorophenyl)allyl)-N-((2-chlorothiazol-5-yl)methyl)-4-(trifluoromethoxy)spiro[indoline-3,4′-piperidine]-1-carboxamide], in experiment [1], the inhibition constant (Ki) was 1.01 µM. Moreover, the minimal effective concentration in experiment [2] (setting [3]) is 3.3 µM; with Haemonchus contortus L3 (setting [4]), 100 µM.
For `N#Cc1ccc(/C=C/CN2CCC3(CC2)CN(C(=O)NCc2ccnc(Cl)c2)c2cc(-c4ccccc4C(F)(F)F)ccc23)cc1` [Example 96, (E)-N-((2-chloropyridin-4-yl)methyl)-1′-(3-(4-cyanophenyl)allyl)-6-(2-(trifluoromethyl)phenyl)spiro[indoline-3,4′-piperidine]-1-carboxamide], in that order: 0.0254 µM, 5.7 µM and 100 µM.
For `N#Cc1ccc(/C=C/CN2CCC3(CC2)CN(C(=O)NCc2ccnc(Cl)c2)c2ccc([N+](=O)[O-])cc23)cc1` [Example 97, (E)-N-((2-chloropyridin-4-yl)methyl)-1′-(3-(4-cyanophenyl)allyl)-5-nitrospiro[indoline-3,4′-piperidine]-1-carboxamide] the same measures were 0.0637 µM, 5.7 µM and 33 µM.
In the case of `N#Cc1ccc(/C=C/CN2CCC3(CC2)CN(C(=O)NCc2ccnc(Cl)c2)c2c(F)ccc(C(F)(F)F)c23)cc1` [Example 98, (E)-N-((2-chloropyridin-4-yl)methyl)-1′-(3-(4-cyanophenyl)allyl)-7-fluoro-4-(trifluoromethyl)spiro[indoline-3,4′-piperidine]-1-carboxamide], the Ki in experiment [1] stood at 1.57 µM. Besides, the minimal effective concentration turned out to be 10 µM in experiment [2] (setting [3]) and 100 µM in the experiment on Haemonchus contortus L3 (setting [4]).
